Data from ChEMBL document CHEMBL1155310, “Synthesis and evaluation of 2-amino-dihydrotetrabenzine derivatives as probes for imaging vesicular monoamine transporter-2” (Bioorg Med Chem Lett, 2009).

Tests used:
[1] = target: T1, Synaptic vesicular amine transporter (Rattus norvegicus, UniProt Q01827); assay: Displacement of [3H]-DTBZ from VMAT2 in rat striatal membrane homogenates; format: cell membranes, Striatum
[2] = target: T1, Synaptic vesicular amine transporter; assay: Displacement of [125I]-iodovinyl-TBZ from VMAT2 in rat striatal membrane homogenates; format: cell membranes, Striatum
[3] = Ratio of drug level in striatum to cerebellum in iv dosed mouse after 30 mins; format: ADME, organism-based; details: in vivo, 0.5 h
[4] = target: Synaptic vesicular amine transporter (Homo sapiens, UniProt Q05940); assay: Binding affinity to VMAT2
Chain of Synaptic vesicular amine transporter (Homo sapiens, UniProt Q05940) (Q05940 whole entry): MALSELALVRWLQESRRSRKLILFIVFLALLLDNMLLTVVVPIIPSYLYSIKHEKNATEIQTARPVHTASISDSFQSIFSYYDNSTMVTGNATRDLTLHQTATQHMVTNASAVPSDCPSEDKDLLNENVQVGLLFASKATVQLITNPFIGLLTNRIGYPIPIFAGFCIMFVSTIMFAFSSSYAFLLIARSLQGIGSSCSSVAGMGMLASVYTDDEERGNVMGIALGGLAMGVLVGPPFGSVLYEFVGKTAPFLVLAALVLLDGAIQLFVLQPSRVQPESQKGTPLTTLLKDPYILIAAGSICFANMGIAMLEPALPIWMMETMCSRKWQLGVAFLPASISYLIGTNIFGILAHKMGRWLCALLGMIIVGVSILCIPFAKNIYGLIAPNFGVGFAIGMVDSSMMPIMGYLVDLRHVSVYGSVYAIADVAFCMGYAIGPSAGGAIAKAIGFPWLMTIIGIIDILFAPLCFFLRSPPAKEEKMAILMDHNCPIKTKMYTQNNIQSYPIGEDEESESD

T1 sequence (Q01827 whole entry): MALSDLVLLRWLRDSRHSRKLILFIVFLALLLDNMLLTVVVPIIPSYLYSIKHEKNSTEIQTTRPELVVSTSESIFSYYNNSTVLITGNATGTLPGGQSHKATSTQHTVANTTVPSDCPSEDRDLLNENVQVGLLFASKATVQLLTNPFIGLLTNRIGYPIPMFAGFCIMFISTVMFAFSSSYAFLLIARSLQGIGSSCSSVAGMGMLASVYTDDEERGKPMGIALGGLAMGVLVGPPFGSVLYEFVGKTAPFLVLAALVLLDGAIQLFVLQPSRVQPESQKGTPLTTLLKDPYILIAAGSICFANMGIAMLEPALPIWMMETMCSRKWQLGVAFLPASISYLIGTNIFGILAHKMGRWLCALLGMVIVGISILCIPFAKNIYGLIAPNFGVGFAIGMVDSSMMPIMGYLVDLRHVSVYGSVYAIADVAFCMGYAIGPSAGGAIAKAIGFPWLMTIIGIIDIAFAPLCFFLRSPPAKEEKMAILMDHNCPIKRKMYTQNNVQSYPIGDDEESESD

Compound | Ki [1] | Ki [2] | Ratio [3] | Ki [4]
COc1cc2c(cc1OC)C1CC(NCCF)C(CC(C)C)CN1CC2 (single isomer, unassigned; diastereomer 2) | 686 nM | 226 nM |  | 
COc1cc2c(cc1OC)C1CC(NCCF)C(CC(C)C)CN1CC2 (mixture of isomers) | 230 nM | 28 nM |  | 
COc1cc2c(cc1OC)C1CC(NCCF)C(CC(C)C)CN1CC2 (stereo in doubt; 4-I) | 8.63 nM | 9.21 nM |  | 
COc1cc2c(cc1OCCCF)CCN1C[C@@H](CC(C)C)[C@H](O)C[C@H]21 [FLORBENAZINE] | 0.36 nM | 0.24 nM | 4.51 | 0.1 nM

The next lines start with the values.

Ki [1] | Ki [2] | Ratio [3] | Ki [4] | Compound
150 nM | 45 nM |  |  | COc1cc2c(cc1OC)C1CC(N)C(CC(C)C)CN1CC2 (stereo unspecified)
269 nM | 199 nM |  |  | CNC1CC2c3cc(OC)c(OC)cc3CCN2CC1CC(C)C (stereo unspecified)
7.01 nM | 8.68 nM |  |  | COc1cc2c(cc1OC)C1CC(NCCCF)C(CC(C)C)CN1CC2 (stereo unspecified)
